# Entries after “also recorded” stand apart in the source; their conditions may differ.
# Columns and labels:
# myosin A tail [1] = assay: ELISA, myosin A tail on immobilized ZA1S; assay type: binding, Plasmodium falciparum; conditions: ZA1S coated, myosin A tail overlaid, anti-biotin antibody, 450 nm
# Text: All wells were put up in triplicates.
# myosin A tail [2] = assay: Far Western-Dot blot assay; assay type: binding, Plasmodium falciparum; conditions: 5 µg immobilized on nitrocellulose; 5 µg/mL biotinylated myosin A tail, 2 h room temperature; anti-biotin
# Experimental: For Far-Western Dot-blot assay, 5 µg each of ZA1S peptide, BSA, and non-specific peptide (N′- pSDNGpSGDD -C′) was immobilized on the strip. Subsequent to the drying of the membrane, it was blocked overnight at 4 °C, following which the second peptide myosin A was overlaid in 5 µg/mL of binding solution (1% BSA/PBST) on the strip for 2 h at room temperature. The strip was washed stringently, and the bound myosin A peptide was detected using an anti-biotin antibody (1:100 dilution) and HRP-conjugated secondary antibody.
# P. falciparum 3D7 = assay: Growth inhibition assay (GIA), P. falciparum 3D7; assay type: cell-based, Plasmodium falciparum
# Experimental: P. falciparum 3D7 strain was thawed and cultured in vitro in human O+ erythrocytes at 4% hematocrit using the method described previously. Briefly, parasites were cultured in medium containing RPMI 1640 (Invitrogen, Carlsbad, CA, USA), supplemented with 2 g/L NaHCO3 (Sigma, St. Louis, MO, USA), 5 g/L albumax (Invitrogen), 50 mg/L hypoxanthine (Sigma), and 10 µg/mL gentamicin sulfate (Invitrogen, Carlsbad, CA, USA) at a pH of 7.2 under mixed gas condition (5% CO2, 5% O2, […]) at 37 °C.
# For the growth inhibition assay, 36–38 h’ parasites were purified by percoll (GE Healthcare, Chicago, IL, USA) density gradient centrifugation. The assay was put on the late trophozoite stage in a 24-well plate in quadruplets in a total 500 µL volume/well. Initial parasitemia and hematocrit were adjusted to 1% and 2%, respectively. ZA1S peptide was added at a final concentration of 10 µM, 20 µM, and 40 µM. Control wells without any peptide or inhibitor were set to validate the normal growth rate of the parasite. After 24 h, a smear was made and fixed in methanol, followed by staining with 10% Giemsa (Sigma, St. Louis, MO, USA) for 10 min. The percent of infected erythrocytes containing different stages of the parasite was counted using a light microscope under 100X oil-immersion. The percent of growth inhibition was calculated using the following formula, and data were plotted graphically. % Growth inhibition = (Control-treated)/Control × 100
sequence,measurement,setting,value
"DIDIDIMHE [ZA1S, nine amino acid long shortened peptide derived from ZA1 (…)]",Binding of myosin A tail to ZA1S,myosin A tail [1],significant binding
same,Detection of bound myosin A,myosin A tail [2],Myosin A was detected in the spot corresponding to ZA1S
same,Invasion inhibition,"P. falciparum 3D7; 10, 20, 40 µM ZA1S on late trophozoite/schizont stage, 24 h, 1% parasitemia, 2% hematocrit, human O+ erythrocytes, Giemsa smear",concentration-dependent increase in invasion inhibition; also recorded: abrogated the invasion of P. falciparum in RBCs
same,Completeness of parasite invasion inhibition,P. falciparum 3D7; Pfal growth inhibition assay,we did not find a complete disruption of myosin A/MTIP complex so as to completely inhibit parasite invasion
same,Parasite morphology,"P. falciparum 3D7; increasing concentrations of ZA1S (10, 20, 40 µM), 24 h, Giemsa smear",no change in the parasite morphology
